{"source": "patent US20090023667A1", "about": "(priority 2005, published 2009)", "key": {"rice Bakanae disease": {"tested_on": "rice Bakanae disease", "experiment": "Test Example 7: control test on rice Bakanae disease, seed immersion", "format": "in vivo", "settings": "seed immersion 24 hours", "description": "150 g of dry rice seeds of naturally infected with rice Bakanae disease (cultivar: Nihonbare) was immersed in a compound solution which was diluted with water to have a prescribed concentration at a volume ratio of 1:1 for 24 hours (liquid temperature; 20 degree centigrade) and air-dried. Subsequently, the seeds were soaked in water at 15 degree centigrade for 4 days and subjected to a sprouting in water at 30 degree centigrade for 24 hours, and then sowed in a nursery box. After the sowing, the seeds were incubated at 30 degree centigrade for 2 days and grown in a greenhouse. After 21 days from the sowing, the number of seedlings showing symptoms of Bankanae disease for 300 seedlings per each chemical was examined. The control value was calculated according to the following equation.\n(§1) Control Value=(1−number of infected seedlings in the treated plot/number of infected seedlings in the untreated plot)×100"}, "Rhizopus chinensis": {"tested_on": "Rhizopus chinensis", "experiment": "Test Example 8: control test on seedling blight (Rhizopus sp), irrigation", "format": "in vivo", "settings": "irrigation 500 ml per box", "description": "150 g of rice seeds (cultivar: Nihonbare) per a box was sowed in a commercial nursery box. After the sowing, the box was treated by irrigation with a compound solution which was diluted to the prescribed concentration at a ratio of 500 ml per a box before covering the seeds with soil. Infected soil, which was made by adding sterilized water to Rhizopus chinensis cultured on a PDA medium and pulverizing whole medium and mixing to a commercial soil, was used for a bed soil. For covering the seeds, a commercial soil was used as it was. After covering the seeds with soil, the seeds were incubated at 32 degree centigrade for 2 days and then grown in a greenhouse.\nAfter 18 days from the sowing, the severity index for 300 seedlings per each compound was examined in the following criteria. The control value was calculated according to the following equation from the average severity obtained by averaging the severity index of each seedling.\nSeverity index 0: No lesion • 1: Root browning or fat root observed • 2: Defective growth • 3: Withered to death\n(§2) Control Value=(1−average severity in the treated plot/average severity in the untreated plot)×100"}, "Pythium sp": {"tested_on": "Pythium sp", "experiment": "Test Example 9: control test on seedling blight (Pythium sp), irrigation", "format": "in vivo", "settings": "irrigation 500 ml per box", "description": "150 g of rice seeds of rice (cultivar: Nihonbare) per a box was sowed on a commercial nursery box. After the sowing, the box was treated by irrigation with a compound solution which was diluted to the prescribed concentration at a ratio of 500 ml per a box before covering the seeds with soil. Infected soil, which was made by adding sterilized water to Pythium sp cultured on a PDA medium and pulverizing whole medium and mixing to a commercial soil, was used for a bed soil. After covering the seeds with soil, the seeds were incubated at 30 degree centigrade for 2 days and then arranged under a condition of 5 degree centigrade for 2 days to enhance disease emergence. After the low temperature treatment, the seeds were grown in a greenhouse.\nas §1"}, "Pyricularia oryzae [1]": {"tested_on": "Pyricularia oryzae", "format": "in vivo"}, "Rhizoctonia solani [2]": {"tested_on": "Rhizoctonia solani", "experiment": "Test Example 6: control test on paddy rice sheath blight, nursery box application", "format": "in vivo", "settings": "nursery box application of granule", "description": "(§3) After 30 days from the treatment, Rhizoctonia solani cultured on a rice chaff/bran medium was inoculated on the basal of the rice plant. After 10 days from the inoculation, the extended lesion length of sheath blight of the whole stem was examined. The control value was calculated according to the following equation (3 replications).\n(§4) Control Value=(1−average lesion length per a stem in the treated plot/average lesion length per a stem in the untreated plot)×100"}, "Rhizoctonia solani [3]": {"tested_on": "Rhizoctonia solani", "experiment": "Test Example 5: control test on paddy rice sheath blight, submerged application", "format": "in vivo", "settings": "submerged application of granule", "description": "as §3, with “14” for “30”\nas §4"}, "Pyricularia oryzae [4]": {"tested_on": "Pyricularia oryzae", "format": "in vivo", "remark": "listed apart in the source"}, "Pyricularia oryzae [5]": {"tested_on": "Pyricularia oryzae", "format": "in vivo", "remark": "listed apart in the source"}, "Pyricularia oryzae [6]": {"tested_on": "Pyricularia oryzae", "experiment": "whole plant or invertebrate", "format": "in vivo", "settings": "for pest or weed control at 60 ppm: Pyricularia oryzae, 168 h, read-out: Control value; for Control value: 60 ppm"}, "Rhizoctonia solani [7]": {"tested_on": "Rhizoctonia solani", "experiment": "Test Example 4: control test on paddy rice sheath blight, spraying", "format": "in vivo", "settings": "60 ppm", "description": "A compound solution of a prescribed concentration was sprayed on three 1/5000a rice pots (cultivar: Koshihikari; 4 leaf stage). After one day from the spraying, Rhizoctonia solani cultured on a rice chaff/bran medium was inoculated on the basal of the rice plant. After 10 days from the inoculation, the extended lesion length of sheath blight of the whole stem was examined. The control value was calculated according to the following equation (3 replications).\nas §4"}, "[8]": {"tested_on": "bacterial seedling blight", "experiment": "Test Example 10: control test on bacterial seedling blight, seed immersion", "format": "in vivo", "settings": "seed immersion 24 hours", "description": "150 g of dry rice seeds of naturally infected with bacterial seedling blight (cultivar: Nihonbare) was immersed in a compound solution which was diluted with water to have a prescribed concentration at a volume ratio of 1:1 (liquid temperature; 20 degree centigrade) for 24 hours and air-dried. Subsequently, the seeds were soaked in water at 15 degree centigrade for 4 days and subjected to a sprouting in water at 30 degree centigrade for 24 hours, and then sowed in a nursery box. After the sowing, the seeds were incubated at 30 degree centigrade for 2 days and grown in a greenhouse. After 21 days from the sowing, the severity index for 300 seedlings per each compound was examined on the basis of the following criteria, and the control value was calculated according to the following equation from the average severity obtained by averaging the severity index of each seedling.\nSeverity index 0: healthy seedling • 1: yellowing or etiolated seedling • 2: dead seedling (withered)\nas §2"}, "clubroot": {"tested_on": "clubroot", "experiment": "Test Example 11: control test on clubroot of cabbages, soil treatment", "format": "in vivo, Plasmodiophora brassicae", "settings": "dust formulation mixed in soil, 60 gai/10a", "description": "A dust formulation in a prescribed amount was mixed in soil and cabbage seedlings (cultivar: Shiki-dori) were planted in the field where was recognized to be infected by clubroot. After 60 days from the treatment, plants were picked out, and clubroot formation was examined according to the degree of severity. The control value was calculated according to the following equation from the average severity obtained by averaging the severity index in each plot.\nSeverity index 0: No clubroot formed • 1: Cluroot was formed at a portion of from not less than 1% to less than 25% of the whole root • 2: Cluroot was formed at a portion of from not less than 25% to less than 50% of the whole root • 3: Cluroot was formed at a portion of from not less than 50% to less than 75% of the whole root • 4: Cluroot was formed at a portion of not less than 75% of the whole root\nas §2"}, "[9]": {"settings": "rice blast, sprayed at 60 ppm active ingredient, lesions after 7 days"}}, "note": "Like-named read-outs stand apart in the source and are kept apart here."}
{"smiles": "CCCCNC(=O)n1c(NC(=O)OC)nc2ccccc21", "note": "[Benomyl, reference compound]", "values": [{"measurement": "Control value", "setting": "rice Bakanae disease; 1000 ppm", "result": 98}]}
{"smiles": "N#Cc1c(Cl)c(Cl)c(Cl)c(C#N)c1Cl", "note": "[TPN, reference compound]", "values": [{"measurement": "Control value", "setting": "Rhizopus chinensis; 800 ppm", "result": 87}]}
{"smiles": "Cc1cc(O)no1", "note": "[Hydroxyisoxazole, reference compound]", "values": [{"measurement": "Control value", "setting": "Pythium sp; 800 ppm", "result": 90}]}
{"smiles": "CC(C)NC(=O)N1CC(=O)N(c2cc(Cl)cc(Cl)c2)C1=O", "note": "[Iprodione, reference compound]", "values": [{"measurement": "Control value", "setting": "Rhizopus chinensis; 1000 ppm", "result": 89}]}
{"smiles": "Cc1ccc(C(=O)NC(CNC(=O)OCC(F)(F)F)C(C)C)cc1", "note": "(stereo not shown) [Compound 6, N-(2,2,2-trifluoroethyloxycarbonyl)-N′-(4-methylbenzoyl)-3-methyl-1,2-butanediamine]", "values": [{"measurement": "Control value", "setting": "Pyricularia oryzae [1]; rice blast, submerged application of granule, 225 gai/10a", "result": 95}, {"measurement": "Control value", "setting": "Rhizoctonia solani [2]; 7.5 gai/box", "result": 4}, {"measurement": "Control value", "setting": "Rhizoctonia solani [3]; 225 gai/10a", "result": 5}, {"measurement": "Control value", "setting": "Pyricularia oryzae [4]; rice blast, nursery box application of granule, 7.5 gai/box", "result": 96}, {"measurement": "Effect (class of control value)", "setting": "Pyricularia oryzae [5]; [9]", "result": "A (Not less than 80%)"}, {"measurement": "pest or weed control at 60 ppm", "setting": "Pyricularia oryzae [6]", "result": 97, "unit": "%"}, {"measurement": "Control value", "setting": "Rhizoctonia solani [7]", "result": 3}]}
{"smiles": "N#Cc1c[nH]cc1-c1cccc2c1OC(F)(F)O2", "note": "[Fludioxonil, reference compound]", "values": [{"measurement": "Control value", "setting": "rice Bakanae disease; 250 ppm", "result": 99}]}
{"smiles": "CC(C)C(CNC(=O)c1cc2ccccc2s1)NC(=O)OCC(F)(F)F", "note": "(stereo not shown) [Compound 34]", "values": [{"measurement": "Control value", "setting": "Rhizopus chinensis; 60 ppm", "result": 3}, {"measurement": "Effect (class of control value)", "setting": "Pyricularia oryzae [5]; in vivo", "result": "A (key: A: Not less than 80%; B: Not less than 50% to less than 80%; C: Less than 50%)"}, {"measurement": "Control value", "setting": "Pyricularia oryzae [6]", "result": 97}, {"measurement": "Control value", "setting": "Rhizoctonia solani [7]", "result": 7}]}
{"smiles": "CC(C)C(CNC(=O)c1cc2ccccc2o1)NC(=O)OCC(F)(F)F", "note": "(stereo not shown) [Compound 28]", "values": [{"measurement": "Control value", "setting": "Pyricularia oryzae [1]; in vivo", "result": 96}, {"measurement": "Control value", "setting": "Rhizoctonia solani [2]; 7.5 gai/box", "result": 5}, {"measurement": "Control value", "setting": "Rhizoctonia solani [3]; 225 gai/10a", "result": 6}, {"measurement": "Control value", "setting": "[8]; 60 ppm", "result": 6}, {"measurement": "Control value", "setting": "Pyricularia oryzae [4]; in vivo", "result": 96}, {"measurement": "Effect (class of control value)", "setting": "Pyricularia oryzae [5]; in vivo", "result": "A (key: A: Not less than 80%; B: Not less than 50% to less than 80%; C: Less than 50%)"}, {"measurement": "Control value", "setting": "Pyricularia oryzae [6]", "result": 97}, {"measurement": "Control value", "setting": "Rhizoctonia solani [7]", "result": 6}]}
{"smiles": "C=C(Cl)COC(=O)NC(CNC(=O)c1ccc(C)cc1)C(C)C", "note": "(stereo not shown) [Compound 15]", "values": [{"measurement": "Control value", "setting": "Pyricularia oryzae [1]; in vivo", "result": 95}, {"measurement": "Control value", "setting": "Rhizoctonia solani [2]; 7.5 gai/box", "result": 3}, {"measurement": "Control value", "setting": "Rhizoctonia solani [3]; 225 gai/10a", "result": 5}, {"measurement": "Control value", "setting": "Pyricularia oryzae [4]; in vivo", "result": 95}, {"measurement": "Effect (class of control value)", "setting": "Pyricularia oryzae [5]; in vivo", "result": "A (key: A: Not less than 80%; B: Not less than 50% to less than 80%; C: Less than 50%)"}, {"measurement": "Control value", "setting": "Pyricularia oryzae [6]", "result": 94}, {"measurement": "Control value", "setting": "Pythium sp; 60 ppm", "result": 4}, {"measurement": "Control value", "setting": "Rhizoctonia solani [7]", "result": 4}]}
{"smiles": "CCC(C)C(CNC(=O)c1cc2ccccc2o1)NC(=O)OCC(F)(F)F", "note": "(stereo not shown) [Compound 32]", "values": [{"measurement": "Control value", "setting": "rice Bakanae disease; 60 ppm", "result": 12}, {"measurement": "Effect (class of control value)", "setting": "Pyricularia oryzae [5]; in vivo", "result": "A (key: A: Not less than 80%; B: Not less than 50% to less than 80%; C: Less than 50%)"}, {"measurement": "Control value", "setting": "Pyricularia oryzae [6]", "result": 95}, {"measurement": "Control value", "setting": "Rhizoctonia solani [7]", "result": 5}]}
{"smiles": "CCC(C)C(CNC(=O)c1nc2ccccc2s1)NC(=O)OCC(F)(F)F", "note": "(stereo not shown) [Compound 33]", "values": [{"measurement": "Control value", "setting": "rice Bakanae disease; 60 ppm", "result": 8}, {"measurement": "Effect (class of control value)", "setting": "Pyricularia oryzae [5]; in vivo", "result": "A (key: A: Not less than 80%; B: Not less than 50% to less than 80%; C: Less than 50%)"}, {"measurement": "Control value", "setting": "Pyricularia oryzae [6]", "result": 96}, {"measurement": "Control value", "setting": "Rhizoctonia solani [7]", "result": 6}]}
{"smiles": "Cc1ccc(C(=O)NC(CNC(=O)OC2CCCCC2Cl)C(C)C)cc1", "note": "(stereo not shown) [Compound 17, N-(2-chlorocyclohexyloxycarbonyl)-N′-(4-methylbenzoyl)-3-methyl-1,2-butanediamine]", "values": [{"measurement": "Control value", "setting": "Rhizopus chinensis; 60 ppm", "result": 3}, {"measurement": "Effect (class of control value)", "setting": "Pyricularia oryzae [5]; [9]", "result": "A (Not less than 80%)"}, {"measurement": "pest or weed control at 60 ppm", "setting": "Pyricularia oryzae [6]", "result": 95, "unit": "%"}, {"measurement": "Control value", "setting": "Rhizoctonia solani [7]", "result": 5}]}
{"smiles": "CCn1cc(C(=O)O)c(=O)c2cc3c(cc21)OCO3", "note": "[Oxolinic acid, reference compound]", "values": [{"measurement": "Control value", "setting": "[8]; 500 ppm", "result": 89}]}
{"smiles": "CNC(=O)/C(=N/OC)c1ccccc1CO/N=C(C)/C(=N/OC)C(/C)=N/OC", "note": "[Oryzastrobin, reference compound]", "values": [{"measurement": "Control value", "setting": "Pyricularia oryzae [1]; rice blast, submerged application of granule, 100 gai/10a", "result": 99}, {"measurement": "Control value", "setting": "Rhizoctonia solani [2]; 3.5 gai/box", "result": 94}, {"measurement": "Control value", "setting": "Rhizoctonia solani [3]; 100 gai/10a", "result": 95}]}
{"smiles": "O=[N+]([O-])c1ccc(NS(=O)(=O)c2ccc(Cl)c(C(F)(F)F)c2)c(Cl)c1", "note": "[Flusulfamide]", "values": [{"measurement": "Control value", "setting": "clubroot", "result": 93}]}
